Results taken from US4835160A, “Derivatives of pyridoindole, having anti-tumor properties” (Sanofi, priority 1986, dated 1989).

Legend:
leukemia L 1210 [1] = assay: Test for leukemia L 1210 IP/D1 IV; assay type: in vivo, CDF1 hybrid mice; conditions: 20 mg/kg IV
Procedure: (§1) The antitumour activity was tested in vivo on various tumours inoculated in various ways according to the following general protocol:
(§2) All the male or female mice are inoculated on day D0 with a known quantity of viable tumour cells for ascitic tumours or with a known tumour fragment for solid tumours.
(§3) They are then distributed into various groups. Each group, corresponding to the animals treated by the product under test, is made up of 10 mice. The product under test is dissolved in distilled water and it is administered n times (Dx-Dy), n, y, and x varying according to the protocol chosen, at the rate of 0.1 ml of solution per 10 g by weight of mice treated and at specific doses for each protocol.
(§4) The "negative control" group, corresponding to the animals which are not treated by the product, contains 2√N animals, N being equal to or greater than the total number of mice treated by the product in the same experiment.
(§5) Finally, the tests can also be carried out at the same time as the study of a group called "positive control", of ten animals, which is treated by a molecule, known for its antitumour activity and which can vary according to the protocol chosen, in the same conditions as the groups treated by the product under test.
(§6) The antitumour activity is evaluated, in the case of ascitic tumours, by considering the increase in the survival time of the animals treated in comparison to that of the animals in the "negative control" group, according to the formula: [formula]
(§7) Also, a product is considered as toxic at the dose studied when this T/C value is equal to or less than 85%. In addition, a product is also considered as toxic at the dose studied when the weight variation, expressed in grams and calculated by the formula: […]
(§8) The tests are carried out with CDF1 hybrid mice inoculated by intraperitoneal route with 10^5 leukemia cells from the L 1210 line. The compound under test is administered for 5 days (D1-D5) by intraperitoneal route. The positive control for the test is 5-fluorouracile administered in the same conditions. The number of surviving animals is evaluated on day D60.
(g) Test for leukemia L 1210 IP/D1 IV. (GERAN et al., Cancer Chemother., 1972, 2, 07-57).
The test is carried out according to the same protocol as that described for test (c), the compound under test being administered by intravenous route only on day D1.

[2] = tested on: leukemia tumour line L 1210; assay: In vitro cytotoxic activity on leukemia tumour line L 1210; assay type: cell-based; conditions: Mus musculus, L1210, 48 h, L 1210, 48 hours contact, 37° C.; read-out: I D 50 (concentration which inhibits the proliferation of the cells by 50%)
In short: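 Exponentially growing L 1210 leukemia cells were exposed to increasing compound concentrations at 37 °C under CO2 and counted every 24 h. ID50, the concentration inhibiting proliferation by 50%, was calculated after 48 h contact.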

reticulosarcoma M5-M5076 = assay: Test for reticulosarcoma M5-M5076; assay type: in vivo, BDF1 hybrid mice; conditions: D1,5,9,13,17; for Number of survivors: day D75; for T/C %: survival time
Procedure: as §1, §2, §3, §4, §5, §6, §7
The tests are carried out with BDF1 hybrid mice inoculated by intraperitoneal route with 10^6 cells of the M5-M5076 line. The compound under test is administered 5 times successively in sequence (D1,5,9,13,17) by intraperitoneal route. The positive control for the test is cyclophosphamide administered in the same conditions. The number of surviving animals is evaluated on day D75.

leukemia L 1210 [3] = assay: Test for leukemia L 1210, IP/IP, D1-D5; assay type: in vivo, CDF1 hybrid mice; conditions: for Number of survivors: day D60; for T/C %: survival time
Procedure: as §1, §2, §3, §4, §5, §6, §7
(c) Test for leukemia L 1210, IP/IP, D-5 (GERAN et al., Cancer cheomother.,1972, 2, 07-57).
as §8

SMILES: Cc1cnc(NCCCN(C)C)c2c3cc(O)ccc3n(C)c12 [Derivative No. 14, 4,5-dimethyl 1(3-dimethylaminopropylamino)-8-hydroxy-5H-pyrido[4,3-b]indole]
- Median day of survival (leukemia L 1210 [1]): 14.0 days
- Variation by weight (leukemia L 1210 [1]): -1.1 g
- Number of survivors (leukemia L 1210 [1]; day D60): 0/10
- T/C % (leukemia L 1210 [1]; survival time): 157%
- IC50 [2]: 14 nM

SMILES: CCN(CC)CCCNc1ncc(C)c2[nH]c3ccc(O)cc3c12 [Derivative No. 7, 1-(diethylaminopropylamino)-8-hydroxy-4-methyl-5H-pyrido[4,3-b]indole]
- Median day of survival (reticulosarcoma M5-M5076; 2.5 mg/kg IP): 31.25 days
- Variation by weight (reticulosarcoma M5-M5076; 2.5 mg/kg IP): -1.0 g
- Number of survivors (reticulosarcoma M5-M5076; 2.5 mg/kg IP): 0/10
- T/C % (reticulosarcoma M5-M5076; 2.5 mg/kg IP): 120%
- Median day of survival (reticulosarcoma M5-M5076; 5 mg/kg IP): 33.0 days
- Variation by weight (reticulosarcoma M5-M5076; 5 mg/kg IP): -1.4 g
- Number of survivors (reticulosarcoma M5-M5076; 5 mg/kg IP): 1/10
- T/C % (reticulosarcoma M5-M5076; 5 mg/kg IP): 127%
- Median day of survival (reticulosarcoma M5-M5076; 10 mg/kg IP): 37.25 days
- Variation by weight (reticulosarcoma M5-M5076; 10 mg/kg IP): -1.8 g
- Number of survivors (reticulosarcoma M5-M5076; 10 mg/kg IP): 0/10
- T/C % (reticulosarcoma M5-M5076; 10 mg/kg IP): 143%
- Median day of survival (reticulosarcoma M5-M5076; 20 mg/kg IP): 41.0 days
- Variation by weight (reticulosarcoma M5-M5076; 20 mg/kg IP): -1.9 g
- Number of survivors (reticulosarcoma M5-M5076; 20 mg/kg IP): 0/10
- T/C % (reticulosarcoma M5-M5076; 20 mg/kg IP): 158%
- Median day of survival (reticulosarcoma M5-M5076; 40 mg/kg IP): 42.0 days
- Variation by weight (reticulosarcoma M5-M5076; 40 mg/kg IP): -1.8 g
- Number of survivors (reticulosarcoma M5-M5076; 40 mg/kg IP): 1/10
- T/C % (reticulosarcoma M5-M5076; 40 mg/kg IP): 161%
- IC50 [2]: 60 nM
- Median day of survival (leukemia L 1210 [3]; 0.625 mg/kg IP): 11.75 days
- Variation by weight (leukemia L 1210 [3]; 0.625 mg/kg IP): -0.9 g
- Number of survivors (leukemia L 1210 [3]; 0.625 mg/kg IP): 0/10
- T/C % (leukemia L 1210 [3]; 0.625 mg/kg IP): 133%
- Median day of survival (leukemia L 1210 [3]; 1.25 mg/kg IP): 14.25 days
- Variation by weight (leukemia L 1210 [3]; 1.25 mg/kg IP): -1.2 g
- Number of survivors (leukemia L 1210 [3]; 1.25 mg/kg IP): 0/10
- T/C % (leukemia L 1210 [3]; 1.25 mg/kg IP): 162%
- Median day of survival (leukemia L 1210 [3]; 2.5 mg/kg IP): 20.75 days
- Variation by weight (leukemia L 1210 [3]; 2.5 mg/kg IP): -1.1 g
- Number of survivors (leukemia L 1210 [3]; 2.5 mg/kg IP): 4/10
- T/C % (leukemia L 1210 [3]; 2.5 mg/kg IP): 236%
- Median day of survival (leukemia L 1210 [3]; 5 mg/kg IP): 14.0 days
- Variation by weight (leukemia L 1210 [3]; 5 mg/kg IP): -0.8 g
- Number of survivors (leukemia L 1210 [3]; 5 mg/kg IP): 2/10
- T/C % (leukemia L 1210 [3]; 5 mg/kg IP): 159%
- Median day of survival (leukemia L 1210 [3]; 10 mg/kg IP): 37.0 days
- Variation by weight (leukemia L 1210 [3]; 10 mg/kg IP): -2.2 g
- Number of survivors (leukemia L 1210 [3]; 10 mg/kg IP): 5/10
- T/C % (leukemia L 1210 [3]; 10 mg/kg IP): 420%
- Median day of survival (leukemia L 1210 [3]; 20 mg/kg IP): 35.0 days
- Variation by weight (leukemia L 1210 [3]; 20 mg/kg IP): -4.2 g
- Number of survivors (leukemia L 1210 [3]; 20 mg/kg IP): 5/10
- T/C % (leukemia L 1210 [3]; 20 mg/kg IP): 398%
- Median day of survival (leukemia L 1210 [3]; 30 mg/kg IP): 8.25 days
- Variation by weight (leukemia L 1210 [3]; 30 mg/kg IP): -5.6 g
- Number of survivors (leukemia L 1210 [3]; 30 mg/kg IP): 0/10
- T/C % (leukemia L 1210 [3]; 30 mg/kg IP): 94%

SMILES: Cc1cnc(NCCCN(C)C)c2c1[nH]c1ccc(O)cc12 [Derivative No. 10, 1-(3-dimethylaminopropylamino)-8-hydroxy-4-methyl-5H-pyrido[4,3-b]indole]
- Median day of survival (reticulosarcoma M5-M5076; 1.25 mg/kg IP): 34.0 days
- Variation by weight (g) (reticulosarcoma M5-M5076; 1.25 mg/kg IP): +2.7 g
- Number of survivors (reticulosarcoma M5-M5076; 1.25 mg/kg IP): 1/10
- T/C % (reticulosarcoma M5-M5076; 1.25 mg/kg IP): 133%
- Median day of survival (reticulosarcoma M5-M5076; 2.5 mg/kg IP): 33.0 days
- Variation by weight (g) (reticulosarcoma M5-M5076; 2.5 mg/kg IP): +0.4 g
- Number of survivors (reticulosarcoma M5-M5076; 2.5 mg/kg IP): 1/10
- T/C % (reticulosarcoma M5-M5076; 2.5 mg/kg IP): 129%
- Median day of survival (reticulosarcoma M5-M5076; 5 mg/kg IP): 40.0 days
- Variation by weight (g) (reticulosarcoma M5-M5076; 5 mg/kg IP): +2.1 g
- Number of survivors (reticulosarcoma M5-M5076; 5 mg/kg IP): 1/10
- T/C % (reticulosarcoma M5-M5076; 5 mg/kg IP): 156%
- Median day of survival (reticulosarcoma M5-M5076; 10 mg/kg IP): 42.0 days
- Variation by weight (g) (reticulosarcoma M5-M5076; 10 mg/kg IP): +1.2 g
- Number of survivors (reticulosarcoma M5-M5076; 10 mg/kg IP): 1/10
- T/C % (reticulosarcoma M5-M5076; 10 mg/kg IP): 164%
- Median day of survival (reticulosarcoma M5-M5076; 20 mg/kg IP): 44.75 days
- Variation by weight (reticulosarcoma M5-M5076; 20 mg/kg IP): 0.0 g
- Number of survivors (reticulosarcoma M5-M5076; 20 mg/kg IP): 1/10
- T/C % (reticulosarcoma M5-M5076; 20 mg/kg IP): 175%
- Median day of survival (reticulosarcoma M5-M5076; 40 mg/kg IP): 46.0 days
- Variation by weight (reticulosarcoma M5-M5076; 40 mg/kg IP): -2.8 g
- Number of survivors (reticulosarcoma M5-M5076; 40 mg/kg IP): 2/10
- T/C % (reticulosarcoma M5-M5076; 40 mg/kg IP): 180%
- Median day of survival (leukemia L 1210 [3]; 1.25 mg/kg IP): 12.75 days
- Variation by weight (leukemia L 1210 [3]; 1.25 mg/kg IP): -1.7 g
- Number of survivors (leukemia L 1210 [3]; 1.25 mg/kg IP): 1/10
- T/C % (leukemia L 1210 [3]; 1.25 mg/kg IP): 145%
- Median day of survival (leukemia L 1210 [3]; 2.5 mg/kg IP): 20.0 days
- Variation by weight (leukemia L 1210 [3]; 2.5 mg/kg IP): -2.1 g
- Number of survivors (leukemia L 1210 [3]; 2.5 mg/kg IP): 4/10
- T/C % (leukemia L 1210 [3]; 2.5 mg/kg IP): 227%
- Median day of survival (leukemia L 1210 [3]; 5 mg/kg IP): > 60 days
- Variation by weight (leukemia L 1210 [3]; 5 mg/kg IP): -2.7 g
- Number of survivors (leukemia L 1210 [3]; 5 mg/kg IP): 6/10
- T/C % (leukemia L 1210 [3]; 5 mg/kg IP): > 682%
- Median day of survival (leukemia L 1210 [3]; 10 mg/kg IP): 15.25 days
- Variation by weight (leukemia L 1210 [3]; 10 mg/kg IP): -3.1 g
- Number of survivors (leukemia L 1210 [3]; 10 mg/kg IP): 4/10
- T/C % (leukemia L 1210 [3]; 10 mg/kg IP): 173%
- Median day of survival (leukemia L 1210 [3]; 20 mg/kg IP): 8.4 days
- Variation by weight (leukemia L 1210 [3]; 20 mg/kg IP): -5.6 g
- Number of survivors (leukemia L 1210 [3]; 20 mg/kg IP): 0/10
- T/C % (leukemia L 1210 [3]; 20 mg/kg IP): 95%
